Laboratory results published in PMC7070036, “An amber obligate active site-directed ligand evolution technique for phage display” (Nature Communications, 2020).
Several values for one entry are separate records, joined by “and”; a condition that tells them apart may be missing. Identical values can stand only once. Like-named read-outs stand apart in the source and are kept apart here. Starred links: 1 amine or outer side, 2 acyl side, 3 side chain; linkers in the order of their positions; H or OH if unused. Non-standard residues stand in square brackets, D forms with d. Residues, ends and D or L forms follow the SMILES beside them. X1 = CCCC(=S)NCCCC[C@H](N[*:1])C(=O)[*:2]

Assays:
Format in all cases: biochemical
[1] = biological target: T1, SIRT2 (Homo sapiens, UniProt Q8IXJ6); assay: Continuous fluorogenic sirtuin inhibition assay, SIRT2 (tBuK peptides, TB)
T1 sequence (Q8IXJ6 1-389): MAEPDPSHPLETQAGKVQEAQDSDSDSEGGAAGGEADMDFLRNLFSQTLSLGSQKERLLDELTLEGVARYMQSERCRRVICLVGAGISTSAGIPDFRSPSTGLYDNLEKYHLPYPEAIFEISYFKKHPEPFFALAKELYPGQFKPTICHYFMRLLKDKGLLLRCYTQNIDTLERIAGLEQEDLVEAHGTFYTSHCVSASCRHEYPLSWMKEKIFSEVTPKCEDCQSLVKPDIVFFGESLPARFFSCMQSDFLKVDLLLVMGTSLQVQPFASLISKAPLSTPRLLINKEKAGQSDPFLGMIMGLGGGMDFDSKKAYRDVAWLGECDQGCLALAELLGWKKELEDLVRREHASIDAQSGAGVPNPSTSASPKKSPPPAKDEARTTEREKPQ
Description: (§1) The continuous assay for comparing isoform specificity of S2P04 was performed using the universal fluorogenic sirtuin substrate described by Schuster et al.[41]. Briefly, the inhibition reactions were performed in 50-µL volumes at 37 °C in black, half-area, 96-well plates. The sirtuin enzyme (0.25 µM) was preincubated with different concentrations of the peptide S2P04 (0.0064–50 µM for SIRT1 and SIRT2, 0.5–100 µM for SIRT3) or TB (0.16–150 µM for SIRT1–SIRT3), and 1 mM NAD^+ in assay buffer (20 mM Tris, pH 7.8, 150 mM NaCl, 5 mM MgCl2, and 1 mM DTT) for 15 min. Following incubation, the reaction started with the addition of the fluorogenic substrate (5 µM), and product formation was monitored by measuring the fluorescence intensity every 20 s for 5 min (SIRT2) or 30 min (SIRT1 and SIRT3) in a BioTek Synergy H1 microplate reader at λex = 320 nm and λem = 408 nm (gain = 130 and read height = 7 mm). Initial rates of product formation were determined by a linear regression of the plot of fluorescence intensity vs. time and normalized relative to 0% (max inhibitor) and 100% (no inhibitor) controls. The assay was repeated to determine the IC50 values of all BuK peptides for SIRT2. IC50 values were determined by nonlinear regression of the plot of the normalized initial rate vs. inhibitor concentration using GraphPad Prism. The determined IC50 values are provided in Supplementary Table 2, and inhibition curves can be seen in Supplementary Fig. 20.

[2] = biological target: T2, SIRT1 (Homo sapiens, UniProt Q96EB6); assay: Continuous fluorogenic sirtuin inhibition assay, SIRT1; conditions: for remaining activity at 0.5 µM: inhibitor 0.5 µM; for IC50: mean ± SD of two independent experiments
T2 sequence (Q96EB6 1-747): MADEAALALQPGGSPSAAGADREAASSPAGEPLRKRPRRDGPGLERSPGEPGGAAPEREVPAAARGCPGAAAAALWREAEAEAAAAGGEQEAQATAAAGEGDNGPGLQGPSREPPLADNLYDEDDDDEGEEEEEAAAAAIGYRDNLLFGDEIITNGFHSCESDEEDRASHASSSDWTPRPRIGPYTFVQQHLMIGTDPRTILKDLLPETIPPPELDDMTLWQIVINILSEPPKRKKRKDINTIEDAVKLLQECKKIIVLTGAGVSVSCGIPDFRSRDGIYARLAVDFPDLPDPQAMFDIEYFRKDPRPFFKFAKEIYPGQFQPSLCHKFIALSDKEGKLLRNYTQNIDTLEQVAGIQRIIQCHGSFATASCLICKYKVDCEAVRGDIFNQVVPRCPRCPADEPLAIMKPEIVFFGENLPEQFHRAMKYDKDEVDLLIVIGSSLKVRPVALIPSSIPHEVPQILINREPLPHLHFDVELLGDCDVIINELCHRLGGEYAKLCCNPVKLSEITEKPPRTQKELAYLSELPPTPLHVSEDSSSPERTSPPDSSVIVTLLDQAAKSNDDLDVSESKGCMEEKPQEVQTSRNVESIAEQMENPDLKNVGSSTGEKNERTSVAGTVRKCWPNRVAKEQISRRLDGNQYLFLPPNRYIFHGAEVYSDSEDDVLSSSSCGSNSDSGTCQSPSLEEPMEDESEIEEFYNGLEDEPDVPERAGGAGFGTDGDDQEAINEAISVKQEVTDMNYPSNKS
Description: as §1

[3] = biological target: T3, SIRT3 (Homo sapiens, UniProt Q9NTG7); assay: Continuous fluorogenic sirtuin inhibition assay, SIRT3; conditions: for remaining activity at 0.5 µM: inhibitor 0.5 µM; for remaining activity at 1 µM: inhibitor 1 µM; for remaining activity at 4 µM: inhibitor 4 µM; for remaining activity at 10 µM: inhibitor 10 µM; for remaining activity at 100 µM: inhibitor 100 µM; for IC50: mean ± SD of two independent experiments
T3 sequence (Q9NTG7 1-399): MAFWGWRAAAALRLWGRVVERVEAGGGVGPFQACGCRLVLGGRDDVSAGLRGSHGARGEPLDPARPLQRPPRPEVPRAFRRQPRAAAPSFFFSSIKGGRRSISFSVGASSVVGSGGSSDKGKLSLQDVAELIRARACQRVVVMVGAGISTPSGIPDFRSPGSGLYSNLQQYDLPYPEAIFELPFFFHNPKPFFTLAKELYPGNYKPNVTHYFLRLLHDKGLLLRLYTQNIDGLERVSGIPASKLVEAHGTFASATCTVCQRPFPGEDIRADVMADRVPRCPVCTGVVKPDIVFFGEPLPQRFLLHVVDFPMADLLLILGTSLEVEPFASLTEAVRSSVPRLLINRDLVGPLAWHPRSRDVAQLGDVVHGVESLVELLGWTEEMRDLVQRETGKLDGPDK
Description: as §1

[4] = inhibitor 0.5 µM, read-out: Normalized Activity, SIRT2
[5] = inhibitor 0.5 µM, single trials
[6] = inhibitor 0.5 µM, single trials, 0.5 µM
[7] = inhibitor 1 µM, read-out: Normalized Activity, SIRT2
[8] = inhibitor 1 µM, single trials, 1 µM
[9] = inhibitor 4 µM, read-out: Normalized Activity, SIRT2
[10] = inhibitor 4 µM, single trials, 4 µM
[11] = inhibitor 50 µM, single trials, 50 µM
[12] = mean ± SD of two independent experiments, read-out: IC50, SIRT2
[13] = read-out: Normalized Activity, SIRT1
[14] = read-out: Normalized Activity, SIRT3

Row | SMILES | remaining activity at 0.5 µM [1, 4] | activity at 0.5 µM [1, 5] | %Activity, SIRT2 [1, 6] | remaining activity at 1 µM [1, 7] | activity at 1 µM ([1]; inhibitor 1 µM, single trials) | %Activity, SIRT2 [1, 8] | remaining activity at 4 µM [1, 9] | activity at 4 µM ([1]; inhibitor 4 µM, single trials) | %Activity, SIRT2 [1, 10] | %Activity, SIRT2 [1, 11] | IC50 [1, 12] | remaining activity at 0.5 µM [2, 13] | IC50 [2] | remaining activity at 0.5 µM [3, 14] | remaining activity at 1 µM [3, 14] | remaining activity at 4 µM [3, 14] | remaining activity at 10 µM [3, 14] | remaining activity at 100 µM [3, 14] | IC50 [3] | also measured
1 | CCCC(=S)NCCCC[C@H](NC(=O)[C@@H](NC(=O)[C@@H](NC(=O)[C@H](CS)NC(=O)[C@@H](N)[C@@H](C)O)[C@@H](C)O)C(C)C)C(=O)N[C@H](C(=O)NCC(N)=O)[C@@H](C)CC [S2P04-tBuK] (H-TCTV[X1]IG-NH2) | 5.68% | 5.65% | 6.5384% | 3.34% | 3.54% | 4.6849% | 2.33% | 2.63% | 3.5157% | 1.0081% | 0.092 ± 0.003 µM | 26.2% | 0.25 ± 0.05 µM | 98.2% | 96.2% | 82.4% | 59.8% | 0% | 14 ± 1 µM | remaining activity at 0.0064 µM ([1]; inhibitor 0.0064 µM, read-out: Normalized Activity, SIRT2): 94.8%; activity at 0.0064 µM ([1]; inhibitor 0.0064 µM, single trials): 85.9%; %Activity, SIRT2 ([1]; inhibitor 0.0064 µM, single trials, 0.0064 µM): 94.59%; remaining activity at 0.032 µM ([1]; inhibitor 0.032 µM, read-out: Normalized Activity, SIRT2): 85.2%; activity at 0.032 µM ([1]; inhibitor 0.032 µM, single trials): 77.2%; %Activity, SIRT2 ([1]; inhibitor 0.032 µM, single trials, 0.032 µM): 83.831%; remaining activity at 2 µM ([1]; inhibitor 2 µM, read-out: Normalized Activity, SIRT2): 3.21%; activity at 2 µM ([1]; inhibitor 2 µM, single trials): 3.42%; %Activity, SIRT2 ([1]; inhibitor 2 µM, single trials, 2 µM): 4.4288%; remaining activity at 50 µM ([1]; inhibitor 50 µM, read-out: Normalized Activity, SIRT2): 0%; activity at 50 µM ([1]; inhibitor 50 µM, single trials): 0.535%; remaining activity at 0.0064 µM ([2]; inhibitor 0.0064 µM, read-out: Normalized Activity, SIRT1): 92.8%; remaining activity at 0.032 µM ([2]; inhibitor 0.032 µM, read-out: Normalized Activity, SIRT1): 87.5%; remaining activity at 2 µM ([2]; inhibitor 2 µM, read-out: Normalized Activity, SIRT1): 2.97%; remaining activity at 50 µM ([2]; inhibitor 50 µM, read-out: Normalized Activity, SIRT1): 0%; remaining activity at 2 µM ([3]; inhibitor 2 µM, read-out: Normalized Activity, SIRT3): 103%; remaining activity at 25 µM ([3]; inhibitor 25 µM, read-out: Normalized Activity, SIRT3): 29.6%; remaining activity at 50 µM ([3]; inhibitor 50 µM, read-out: Normalized Activity, SIRT3): 9.72%
2 | CCCC(=S)NCCCC[C@H](NC(=O)OCc1ccccc1)C(=O)Nc1ccccc1 [TB, reference compound] | 112% | 112% | 98.9568% | 80.3% | 80.3% | 81.929% | 40.6% | 40.6% | 42.8707% | -6.644% and -4.551% | 3.11 ± 0.04 µM | 98.9% | 9.62 ± 0.09 µM | 90.6% | 91.2% | 93.9% | 92.4% | 79.9% | > 150 µM | IC50 ([1]; 0.25 µM SIRT2, 1 mM NAD+, 5 µM fluorogenic substrate, 15 min preincubation, n = 2, read-out: IC50): 3.11 ± 0.045 µM; remaining activity at 10 µM ([1]; inhibitor 10 µM, read-out: Normalized Activity, SIRT2): 6.05%; activity at 10 µM ([1]; inhibitor 10 µM, single trials): 6.05%; %Activity, SIRT2 ([1]; inhibitor 10 µM, single trials, 10 µM): 11.4809%; %Activity, SIRT2 ([1]; inhibitor 100 µM, (Activity/Activity w/o inhibitor)*100, single trials, 100 µM): -5.573% and -9.821%; remaining activity at 150 µM ([1]; inhibitor 150 µM, 100 = Activity w/o inhibitor, 0 = Activity of highest inhibitor, read-out: Normalized Activity, SIRT2): 0%; remaining activity at 1 µM ([2]; inhibitor 1 µM, read-out: Normalized Activity, SIRT1): 99%; remaining activity at 4 µM ([2]; inhibitor 4 µM, read-out: Normalized Activity, SIRT1): 75%; remaining activity at 10 µM ([2]; inhibitor 10 µM, read-out: Normalized Activity, SIRT1): 55.9%; remaining activity at 150 µM ([2]; inhibitor 150 µM, 100 = Activity w/o inhibitor, 0 = Activity of highest inhibitor, read-out: Normalized Activity, SIRT1): 0%; inhibition of SIRT3 ([3]; 0.16–150 µM): 0 = Activity of highest inhibitor *TB for SIRT3 showed no inhibiton
